Measured values published in ChEMBL document CHEMBL1201862, “PubChem BioAssay data set” (2004).
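Exposure lasted 48 hours, with cells grown in 96-well plates and compounds tested at five concentrations. At the GI50, growth is halved.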 Activity calls are given as the source filed them. Rule as the data show it: active = GI50 up to about 1.1 µM and inactive = higher. Where a SMILES comes first, the peptide text is derived from it. The star is where a group is joined. Boc = CC(C)(C)OC(=O)*

Columns and labels:
Experiment in all cases: NCI anticancer screen, dose series, 48 h
[1] = tested on: KM12
[2] = tested on: UACC-62
[3] = tested on: HOP-92
[4] = tested on: RXF 393
[5] = tested on: 786-0
[6] = tested on: EKVX
[7] = tested on: ACHN
[8] = tested on: COLO 205
[9] = tested on: HL-60
[10] = tested on: NCI-H23
[11] = tested on: A549
[12] = tested on: UO-31
[13] = tested on: Malme-3M
[14] = tested on: RPMI-8226
[15] = tested on: CCRF-CEM
[16] = tested on: SF-268
[17] = tested on: HCT-116
[18] = tested on: NCI-H226
[19] = tested on: HOP-62

SMILES | GI50 [1] | GI50 [2] | GI50 [3] | GI50 [4] | GI50 [5] | GI50 [6] | GI50 [7] | GI50 [8] | GI50 [9] | GI50 [10] | GI50 [11] | GI50 [12] | GI50 [13] | GI50 [14] | GI50 [15] | GI50 [16] | GI50 [17] | GI50 [18] | GI50 [19]
O=C(O)CNS(=O)(=O)c1ccc(NC(=O)c2ccc(F)cc2)cc1 | > 100 µM (inactive) | > 100 µM (inactive) | > 100 µM (inactive) | 83 µM (inactive) | > 100 µM (inactive) | > 100 µM (inactive) | > 100 µM (inactive) | > 100 µM (inactive) | > 100 µM (inactive) | > 100 µM (inactive) | > 100 µM (inactive) | > 100 µM (inactive) | > 100 µM (inactive) | > 100 µM (inactive) | > 100 µM (inactive) | > 100 µM (inactive) |  |  | 
C(=C\c1csnn1)/c1cccnc1 | > 100 µM (inactive) |  |  | > 100 µM (inactive) | > 100 µM (inactive) | > 100 µM (inactive) | > 100 µM (inactive) | > 100 µM (inactive) | > 100 µM (inactive) | > 100 µM (inactive) | > 100 µM (inactive) | > 100 µM (inactive) | > 100 µM (inactive) | > 100 µM (inactive) |  | > 100 µM (inactive) | > 100 µM (inactive) | > 100 µM (inactive) | > 100 µM (inactive)
C[C@]12CC[C@H](OC3CCCCO3)CC1=CC[C@@H]1C2CC[C@]2(C)/C(=N/OCCC#N)CCC12 (stereo partly specified) | > 100 µM (inactive) | 97.1 µM (inactive) | 21.9 µM (inactive) | 16 µM (inactive) | 23.1 µM (inactive) | 19.2 µM (inactive) | 33.8 µM (inactive) |  |  | 11.4 µM (inactive) | 26.8 µM (inactive) | 47.8 µM (inactive) | > 100 µM (inactive) | > 100 µM (inactive) |  |  | 5.73 µM (inactive) |  | > 100 µM (inactive)
C=C1COC(/C=C(\C)CC/C=C(\C)CCl)C1 (stereo unspecified) | > 100 µM (inactive) | > 100 µM (inactive) | 35.1 µM (inactive) | > 100 µM (inactive) | > 100 µM (inactive) | > 100 µM (inactive) | > 100 µM (inactive) | > 100 µM (inactive) | > 100 µM (inactive) | > 100 µM (inactive) | > 100 µM (inactive) | > 100 µM (inactive) |  | > 100 µM (inactive) | > 100 µM (inactive) | > 100 µM (inactive) | > 100 µM (inactive) | > 100 µM (inactive) | > 100 µM (inactive)
CCCc1cc(=O)oc2c3c(c4c(c12)OC(C)(C)CC4)O[C@@H](C)[C@H](C)[C@H]3O | 12.4 µM (inactive) | 9.02 µM (inactive) | 13.6 µM (inactive) | 11.3 µM (inactive) | 5.37 µM (inactive) | 12.2 µM (inactive) |  | 12.6 µM (inactive) |  | 12.2 µM (inactive) | 10.8 µM (inactive) | 6.12 µM (inactive) | 14.4 µM (inactive) | 4.35 µM (inactive) | 3.98 µM (inactive) | 15.1 µM (inactive) | 8.89 µM (inactive) | 15.2 µM (inactive) | 14.9 µM (inactive)
COC(=O)c1cc2c(s1)C(=O)c1ccccc1-2 | > 100 µM (inactive) | > 100 µM (inactive) | > 100 µM (inactive) | > 100 µM (inactive) | > 100 µM (inactive) | > 100 µM (inactive) | > 100 µM (inactive) | > 100 µM (inactive) | > 100 µM (inactive) | > 100 µM (inactive) | > 100 µM (inactive) | > 100 µM (inactive) | > 100 µM (inactive) |  | > 100 µM (inactive) | > 100 µM (inactive) | > 100 µM (inactive) | > 100 µM (inactive) | > 100 µM (inactive)
S=C(S)N1CCN(c2ccccc2)CC1 | > 100 µM (inactive) |  | > 100 µM (inactive) | > 100 µM (inactive) | 45.1 µM (inactive) | > 100 µM (inactive) | > 100 µM (inactive) | 57.5 µM (inactive) | 9.31 µM (inactive) |  | > 100 µM (inactive) |  | > 100 µM (inactive) | 27.5 µM (inactive) |  | 88.3 µM (inactive) | 34.5 µM (inactive) |  | > 100 µM (inactive)
Cc1cnc2nc(-c3ccc4ccccc4c3)cc(O)c2c1 | 0.444 µM (active) | 0.317 µM (active) |  |  | 0.61 µM (active) |  | 0.658 µM (active) | 0.342 µM (active) |  | 0.434 µM (active) | 0.625 µM (active) | 0.847 µM (active) |  | 0.305 µM (active) | 0.323 µM (active) | 2.81 µM (inactive) |  | 0.504 µM (active) | 0.851 µM (active)
COC(=O)[C@H](Cc1ccc(O)cc1)NC(=O)[C@H](Cc1ccc(O)cc1)NC(=O)OC(C)(C)C (Boc-Tyr-Tyr-OMe) | > 100 µM (inactive) | > 100 µM (inactive) |  | 49.7 µM (inactive) | > 100 µM (inactive) | > 100 µM (inactive) | > 100 µM (inactive) | 37.2 µM (inactive) |  | > 100 µM (inactive) | > 100 µM (inactive) | > 100 µM (inactive) | > 100 µM (inactive) |  |  | > 100 µM (inactive) | > 100 µM (inactive) | > 100 µM (inactive) | > 100 µM (inactive)
